{
  "source": "patent US20250034108A1",
  "about": "“SODIUM CHANNEL BLOCKERS” (NOVARTIS AG, priority 2023, published 2025)",
  "key": {"human Nav1.5 [1]": {"target": "T1, human Nav1.5 (Homo sapiens (Human), UniProt Q14524)", "T1 sequence (Q14524 whole entry)": "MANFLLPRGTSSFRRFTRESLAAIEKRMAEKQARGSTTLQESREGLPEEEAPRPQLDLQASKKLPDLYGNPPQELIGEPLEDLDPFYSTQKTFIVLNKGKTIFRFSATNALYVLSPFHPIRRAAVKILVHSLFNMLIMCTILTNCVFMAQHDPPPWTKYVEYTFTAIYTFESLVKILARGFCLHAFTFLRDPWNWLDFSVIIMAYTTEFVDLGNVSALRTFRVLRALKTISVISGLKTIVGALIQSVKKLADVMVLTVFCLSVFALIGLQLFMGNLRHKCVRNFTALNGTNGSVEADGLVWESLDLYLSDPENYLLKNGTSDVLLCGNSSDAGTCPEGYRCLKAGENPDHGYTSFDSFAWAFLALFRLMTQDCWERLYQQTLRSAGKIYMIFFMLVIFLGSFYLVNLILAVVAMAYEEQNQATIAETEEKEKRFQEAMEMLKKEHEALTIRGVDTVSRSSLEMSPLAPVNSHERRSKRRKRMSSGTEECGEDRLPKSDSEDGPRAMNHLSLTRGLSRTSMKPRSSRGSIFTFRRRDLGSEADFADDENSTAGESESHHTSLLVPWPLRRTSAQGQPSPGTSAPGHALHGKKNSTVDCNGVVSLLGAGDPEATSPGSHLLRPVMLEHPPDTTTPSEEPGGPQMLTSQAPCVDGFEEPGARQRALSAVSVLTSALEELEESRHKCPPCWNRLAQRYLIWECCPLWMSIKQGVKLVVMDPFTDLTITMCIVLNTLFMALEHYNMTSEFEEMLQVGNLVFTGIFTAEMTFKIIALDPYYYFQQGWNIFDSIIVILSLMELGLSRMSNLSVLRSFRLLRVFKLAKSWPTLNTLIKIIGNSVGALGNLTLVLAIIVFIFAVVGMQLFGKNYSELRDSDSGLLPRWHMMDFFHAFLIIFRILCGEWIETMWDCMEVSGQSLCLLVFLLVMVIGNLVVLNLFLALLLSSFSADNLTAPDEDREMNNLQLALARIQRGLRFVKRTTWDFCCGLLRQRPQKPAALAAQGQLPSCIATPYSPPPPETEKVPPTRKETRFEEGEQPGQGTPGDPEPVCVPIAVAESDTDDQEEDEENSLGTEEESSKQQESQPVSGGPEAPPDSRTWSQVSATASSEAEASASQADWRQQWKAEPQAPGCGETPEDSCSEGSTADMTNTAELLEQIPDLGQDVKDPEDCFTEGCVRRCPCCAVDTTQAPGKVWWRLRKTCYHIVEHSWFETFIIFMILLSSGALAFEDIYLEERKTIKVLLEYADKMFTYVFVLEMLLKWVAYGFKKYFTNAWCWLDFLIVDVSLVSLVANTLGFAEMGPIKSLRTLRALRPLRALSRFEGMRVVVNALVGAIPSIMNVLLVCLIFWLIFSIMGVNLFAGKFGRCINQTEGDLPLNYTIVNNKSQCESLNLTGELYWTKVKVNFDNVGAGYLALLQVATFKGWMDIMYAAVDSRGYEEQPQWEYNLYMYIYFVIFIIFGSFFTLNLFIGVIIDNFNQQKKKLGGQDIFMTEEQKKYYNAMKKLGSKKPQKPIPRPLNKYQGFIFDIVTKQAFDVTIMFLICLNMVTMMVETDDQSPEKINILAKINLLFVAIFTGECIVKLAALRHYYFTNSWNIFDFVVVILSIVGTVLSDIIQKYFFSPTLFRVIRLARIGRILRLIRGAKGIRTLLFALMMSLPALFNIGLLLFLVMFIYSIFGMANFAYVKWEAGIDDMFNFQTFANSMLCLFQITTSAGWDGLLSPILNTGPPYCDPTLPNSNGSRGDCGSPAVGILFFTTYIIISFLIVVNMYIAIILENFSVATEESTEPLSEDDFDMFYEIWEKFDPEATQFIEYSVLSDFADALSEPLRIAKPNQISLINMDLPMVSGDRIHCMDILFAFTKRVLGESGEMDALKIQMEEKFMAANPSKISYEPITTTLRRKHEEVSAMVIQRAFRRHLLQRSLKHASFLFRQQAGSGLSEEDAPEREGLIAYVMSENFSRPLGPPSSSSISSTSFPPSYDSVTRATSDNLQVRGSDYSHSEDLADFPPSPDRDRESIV", "assay": "Qpatch automated patch-clamp, peak Nav1.5 current inhibition, 1 Hz sinus rate, ventricular condition (holding potential -100 mV)", "format": "cell-based", "conditions": "CHO-K1 cells stably expressing human Nav1.5, without ATX-II", "excerpt": "Electrophysiology was used to measure the ionic currents in isolated living cells using automated patch-clamp recording, performed using an automated patch-clamp machine called Qpatch (Sophion Bioscience). Two different assay conditions were used to identify compounds with atrial-selective potential. The 5-Hz AF-like assay has more depolarized holding potential at −85 mV to mimic atrial resting membrane potential (RMP) and was used to identify compounds of strong rate-dependence. Active, rate-dependent compounds were then screened at 1 Hz (i.e., sinus rate) at the holding potential of −100 mV to mimic the ventricular scenario and help identify compounds with the largest potency separation or attenuation from the 5-Hz AF-like assay. Such compounds have the potential for treating AF without the QRS liability inherent to Class Ic drugs.\nThe sodium current conducted through a cell (via Nav1.5) or electrical signals were processed through a low-pass filter at 5 KHz, re-digitalized and acquired at 20 kHz. Series resistance was not compensated and leak subtraction was performed.\n1 to 3 million Chinese Hamster Ovary cells (also known as CHO-K1) stably expressing human Nav1.5 were seeded into […] culture flasks with 25 mL medium (consisting of Gibco Dulbecco's Modified Eagle Medium as a base medium with 1% MEM non-essential amino acids, 400 μg/mL Geneticin, 5 μg/mL puromycin and 10% fetal bovine serum) 48-72 hours prior to the experiments. On the day of the experiment, cells were washed once with phosphate-buffered saline (also known as PBS; Gibco) detached with Detachin™ (Genlantis), and re-suspended in CHO—S-SFM II media (Gibco) at 200,000 cells/mL. The CHO—S-SFM II was replaced with assay solutions prior to the assays. Whole-cell currents were recorded at room temperature in the whole-cell configuration. The external aqueous assay solution (pH=7.4; Osm=307-315) contained the following (the concentration for each component is expressed in parentheses in mM): NaCl (140 mM), KCl (4 mM), CaCl2) (2 mM), MgCl2 (1 mM), 4-(2-hydroxyethyl)-1-piperazineethanesulfonic acid, also known as HEPES (10 mM), and glucose (5 mM). The internal aqueous assay solution (pH=7.2; Osm=292-295) contained the following (the concentration for each component is expressed in parentheses in mM): CsF (110 mM), CsCl (10 mM), NaCl (10 mM), HEPES (10 mM), and ethylene glycolbis(β-aminoethyl ether)-N,N,N′,N′-tetraacetic acid, also known as EGTA (10 mM).\nTo assess peak Nav1.5 current inhibition mimicking a ventricular condition at sinus rate with or without ATX-II (Nav1.5 IC50 (1 Hz, ATXII) (μM) or (1 Hz, Sinus Rate) (μM)), compounds were first prepared at 10 mM in DMSO, and cells were pre-incubated with test compounds at each concentration for 3 min. in an ascending order of 0, 0.37, 1.1, 3.3, 10 and 30 uM. In the assay with ATX-II (Alomone Labs), 50 nM ATX-II was included during the 3-min. compound incubation. A square pulse (−10 mV; 400 ms and a holding potential at −100 mV) was run at 1 Hz for 25 s until no further inhibition or Nav1.5 current change was observed. The percent inhibition (expressed as ([Iafter compound treatment/Ibefore compound treatment]×100%) is calculated by normalizing the peak current amplitude at the last pulse of each of the 6 compound concentrations by the amplitude before exposure to the test compound. The compiled data was further normalized by vehicle control (DMSO) to account for Nav1.5 current run-down, and IC50 was calculated by Matlab (MathWorks, USA)."}, "human Nav1.5 [2]": {"target": "T1, human Nav1.5", "assay": "Qpatch automated patch-clamp, peak Nav1.5 current inhibition, 1 Hz with 50 nM ATX-II (holding potential -100 mV)", "format": "cell-based", "conditions": "CHO-K1 cells stably expressing human Nav1.5, read-out: Nav1.5 IC50 (1 Hz, ATXII)", "outline": "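CHO-K1 cells stably expressing human Nav1.5, whole-cell recording at room temperature; 3-min pre-incubation at 0–30 uM ascending, with or without 50 nM ATX-II. Pulses to −10 mV (400 ms) from −100 mV at 1 Hz for 25 s; last-pulse peak current normalized to pre-compound and DMSO run-down, IC50 fitted.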"}, "human Nav1.5 [3]": {"target": "T1, human Nav1.5", "assay": "Qpatch automated patch-clamp, peak Nav1.5 current inhibition, 5-Hz AF-like assay (holding potential -85 mV)", "format": "cell-based", "conditions": "CHO-K1 cells stably expressing human Nav1.5, holding potential -85 mV, Table 5, read-out: Nav1.5 IC50 (5 Hz, AF Rate)", "outline": "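CHO-K1 cells stably expressing human Nav1.5, whole-cell automated patch-clamp at room temperature, CsF-based internal. Compounds pre-incubated 3 min each at ascending 0-30 μM; +10 to −85 mV ramp (150 ms) applied at 5 Hz for 12 s from −85 mV holding. IC50 from last-pulse peak current, vehicle-normalized for run-down.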"}, "[4]": {"assay": "Hygroscopicity / water uptake of crystalline forms of Example 1", "format": "physicochemical", "conditions": "for hygroscopicity: crystalline form"}},
  "data": [
    {"compound": "CC(O)(CS(N)(=O)=O)c1nc(-c2nnn(Cc3cc(OC(F)(F)F)ccc3F)n2)ccc1F", "note": "(single isomer, unassigned) [Example 44, (R or S)-2-(3-fluoro-6-(2-(2-fluoro-5-(trifluoromethoxy)benzyl)-2H-tetrazol-5-yl)pyridin-2-yl)-2-hydroxypropane-1-sulfonamide]", "values": [
      {"measurement": "IC50", "setting": "human Nav1.5 [1]", "value": "> 30", "unit": "µM"},
      {"measurement": "IC50", "setting": "human Nav1.5 [2]", "value": 19, "unit": "µM"},
      {"measurement": "IC50", "setting": "human Nav1.5 [3]", "value": 4.6, "unit": "µM"}
    ]},
    {"compound": "CC(O)(CS(N)(=O)=O)c1nc(-c2nnn(Cc3cc(OC(F)(F)F)ccc3F)n2)ccc1F", "note": "(single isomer, unassigned) [Example 45, (R or S)-2-(3-fluoro-6-(2-(2-fluoro-5-(trifluoromethoxy)benzyl)-2H-tetrazol-5-yl)pyridin-2-yl)-2-hydroxypropane-1-sulfonamide]", "values": [
      {"measurement": "IC50", "setting": "human Nav1.5 [1]", "value": "> 30", "unit": "µM"},
      {"measurement": "IC50", "setting": "human Nav1.5 [2]", "value": "> 30", "unit": "µM"},
      {"measurement": "IC50", "setting": "human Nav1.5 [3]", "value": 4.8, "unit": "µM"}
    ]},
    {"compound": "CC(O)(CS(N)(=O)=O)c1cccc(-c2nnn(Cc3cc(OC4CC4)ccc3F)n2)n1", "note": "(single isomer, unassigned) [Example 46, (R or S)-2-(6-(2-(5-cyclopropoxy-2-fluorobenzyl)-2H-tetrazol-5-yl)pyridin-2-yl)-2-hydroxypropane-1-sulfonamide]", "values": [
      {"measurement": "IC50", "setting": "human Nav1.5 [1]", "value": "> 30", "unit": "µM"},
      {"measurement": "IC50", "setting": "human Nav1.5 [2]", "value": "> 30", "unit": "µM"},
      {"measurement": "IC50", "setting": "human Nav1.5 [3]", "value": 8.3, "unit": "µM"}
    ]},
    {"compound": "CC(O)(CS(N)(=O)=O)c1cccc(-c2nnn(Cc3cc(OC4CC4)ccc3F)n2)n1", "note": "(single isomer, unassigned) [Example 47, (R or S)-2-(6-(2-(5-cyclopropoxy-2-fluorobenzyl)-2H-tetrazol-5-yl)pyridin-2-yl)-2-hydroxypropane-1-sulfonamide]", "values": [
      {"measurement": "IC50", "setting": "human Nav1.5 [1]", "value": 27, "unit": "µM"},
      {"measurement": "IC50", "setting": "human Nav1.5 [2]", "value": 13, "unit": "µM"},
      {"measurement": "IC50", "setting": "human Nav1.5 [3]", "value": 3.9, "unit": "µM"}
    ]},
    {"compound": "CC(C(O)c1cccc(-c2nnn(Cc3cc(OC(F)(F)F)ccc3F)n2)n1)S(N)(=O)=O", "note": "(single isomer, unassigned) [Example 52, (JR or 1S,2R or 2S)-1-(6-(2-(2-fluoro-5-(trifluoromethoxy)benzyl)-2H-tetrazol-5-yl)pyridin-2-yl)-1-hydroxypropane-2-sulfonamide]", "values": [
      {"measurement": "IC50", "setting": "human Nav1.5 [1]", "value": 49, "unit": "µM"},
      {"measurement": "IC50", "setting": "human Nav1.5 [2]", "value": 22, "unit": "µM"},
      {"measurement": "IC50", "setting": "human Nav1.5 [3]", "value": 2.9, "unit": "µM"}
    ]},
    {"compound": "C[C@](O)(CS(N)(=O)=O)c1cccc(-c2nnn(Cc3cc(OC(F)(F)F)ccc3F)n2)n1", "note": "[Example 1, (R)-2-(6-(2-(2-fluoro-5-(trifluoromethoxy)benzyl)-2H-tetrazol-5-yl)pyridin-2-yl)-2-hydroxypropane-1-sulfonamide]", "values": [
      {"measurement": "IC50", "setting": "human Nav1.5 [1]", "value": 22, "unit": "µM"},
      {"measurement": "IC50", "setting": "human Nav1.5 [2]", "value": 19, "unit": "µM"},
      {"measurement": "IC50", "setting": "human Nav1.5 [3]", "value": 3.1, "unit": "µM"}
    ]},
    {"compound": "C[C@](O)(CS(N)(=O)=O)c1cccc(-c2nnn(Cc3cc(OC(F)(F)F)ccc3F)n2)n1", "note": "[Modification A-1, (R)-2-(6-(2-(2-fluoro-5-(trifluoromethoxy)benzyl)-2H-tetrazol-5-yl)pyridin-2-yl)-2-hydroxypropane-1-sulfonamide]", "values": [
      {"measurement": "reversible water uptake", "setting": "[4]; at 90% relative humidity", "value": "about 0.10%"},
      {"measurement": "hygroscopicity", "setting": "[4]", "value": "not hygroscopic"}
    ]},
    {"compound": "C[C@](O)(CS(N)(=O)=O)c1cccc(-c2nnn(Cc3cc(OC(F)(F)F)ccc3F)n2)n1", "note": "[Modification A-2, (R)-2-(6-(2-(2-fluoro-5-(trifluoromethoxy)benzyl)-2H-tetrazol-5-yl)pyridin-2-yl)-2-hydroxypropane-1-sulfonamide]", "values": [
      {"measurement": "hygroscopicity", "setting": "[4]", "value": "hygroscopic and shows gel formation at 70% relative humidity and above"}
    ]},
    {"compound": "C[C@](O)(CS(N)(=O)=O)c1cccc(-c2nnn(Cc3cc(OC(F)(F)F)ccc3F)n2)n1", "note": "[Modification A-3, (R)-2-(6-(2-(2-fluoro-5-(trifluoromethoxy)benzyl)-2H-tetrazol-5-yl)pyridin-2-yl)-2-hydroxypropane-1-sulfonamide]", "values": [
      {"measurement": "hygroscopicity", "setting": "[4]", "value": "hygroscopic and shows gel formation at 70% relative humidity and above"}
    ]}
  ]
}
